Measured values published in ChEMBL document CHEMBL1148610, “Novel potential anticancer naphthyl phosphoramidates of BVdU: separation of diastereoisomers and assignment of the absolute configuration of the phosphorus center” (J Med Chem, 2006).

Assays:
Format in all cases: functional, cell-based
MDA-MB-231 = assay: Cytostatic activity against human breast cancer MDA-MB-231 cell line
PC-3 = assay: Cytostatic activity against human prostate cancer PC3 cell line
T-24 = assay: Cytostatic activity against human bladder cancer T24 cell line

Structure (SMILES)	EC50 (MDA-MB-231) [µM]	EC50 (PC-3) [µM]	EC50 (T-24) [µM]
CCC(C)[C@H](NP(=O)(OC[C@H]1O[C@@H](n2cc(/C=C/Br)c(=O)[nH]c2=O)C[C@@H]1O)Oc1cccc2ccccc12)C(=O)OCc1ccccc1 (stereo partly specified)	130	1.4	–
COC(=O)[C@H](Cc1ccccc1)NP(=O)(OCC1OC(n2cc(/C=C/Br)c(=O)[nH]c2=O)CC1O)Oc1cccc2ccccc12 (stereo partly specified)	8.5	10.2	5.3
COC(=O)[C@H](C(C)C)P(=O)(OCC1OC(n2cc(/C=C/Br)c(=O)[nH]c2=O)CC1O)Oc1cccc2ccccc12 (stereo partly specified)	14.8	15.8	43.5
C[C@H](NP(=O)(O)Oc1cccc2ccccc12)C(=O)OCc1ccccc1	15.2	1.7	–
COC(=O)[C@@H](NP(=O)(OCC1OC(n2cc(/C=C/Br)c(=O)[nH]c2=O)CC1O)Oc1cccc2ccccc12)c1ccccc1 (stereo partly specified)	105	1.7	–
COC(=O)[C@H](CCSC)NP(=O)(OCC1OC(n2cc(/C=C/Br)c(=O)[nH]c2=O)CC1O)Oc1cccc2ccccc12 (stereo partly specified)	28.1	44.6	19.6
COC(=O)[C@@H]1CCCN1P(=O)(OCC1OC(n2cc(/C=C/Br)c(=O)[nH]c2=O)CC1O)Oc1cccc2ccccc12 (stereo partly specified)	6.5	10.5	0.4

Now those with a lower EC50 (MDA-MB-231), led by results:

EC50 (MDA-MB-231) [µM]	EC50 (PC-3) [µM]	EC50 (T-24) [µM]	Structure (SMILES)
6.3	6.1	2.8	C[C@@H](NP(=O)(OCC1OC(n2cc(/C=C/Br)c(=O)[nH]c2=O)CC1O)Oc1cccc2ccccc12)C(=O)OCc1ccccc1 (stereo partly specified)
5.9	8.3	12.7	CC(C)[C@H](NP(=O)(OCC1OC(n2cc(/C=C/Br)c(=O)[nH]c2=O)CC1O)Oc1cccc2ccccc12)C(=O)OCc1ccccc1 (stereo partly specified)
4.8	11	4	C[C@H](NP(=O)(OCC1OC(n2cc(/C=C/Br)c(=O)[nH]c2=O)CC1O)Oc1cccc2ccccc12)C(=O)OC(C)(C)C (stereo partly specified)
2.7	1.5	–	CC(C)(NP(=O)(OC[C@H]1O[C@@H](n2cc(/C=C/Br)c(=O)[nH]c2=O)C[C@@H]1O)Oc1cccc2ccccc12)C(=O)OCc1ccccc1 (stereo partly specified)
1.96	5.8	269	O=C(OCc1ccccc1)[C@H](Cc1ccccc1)NP(=O)(OCC1OC(n2cc(/C=C/Br)c(=O)[nH]c2=O)CC1O)Oc1cccc2ccccc12 (stereo partly specified)
1.5	6.9	–	CCC(C)[C@H](NP(=O)(OC[C@H]1O[C@@H](n2cc(/C=C/Br)c(=O)[nH]c2=O)C[C@@H]1O)Oc1cccc2ccccc12)C(=O)OC (stereo partly specified)
0.32	65.9	–	COC(=O)C(C)(C)NP(=O)(OC[C@H]1O[C@@H](n2cc(/C=C/Br)c(=O)[nH]c2=O)C[C@@H]1O)Oc1cccc2ccccc12 (stereo partly specified)
